What was measured:
Assay type in all cases: functional
[1] = species: Mus musculus; assay: Effect on whole mouse brain DOPAC level after 1 day (control = 100+/-6)
[2] = species: Mus musculus; assay: Effect on whole mouse brain 5-hydroxyindoleacetic acid level after 1 week (control = 100+/-10)
[3] = species: Mus musculus; assay: Effect on whole mouse brain norepinephrine level after 1 week (control = 100+/-10)
[4] = species: Mus musculus; assay: Effect on whole mouse brain 5-hydroxyindoleacetic acid level after 1 day (control = 100+/-5)
[5] = species: Mus musculus; assay: Effect on whole mouse brain choline level after 1 day (control = 100+/-9)
[6] = species: Mus musculus; assay: Effect on whole mouse brain homovanillic acid level after 3h (control = 100+/-6)
[7] = species: Mus musculus; assay: Effect on whole mouse brain 5-HT acid level after 1 week (control = 100+/-9)
[8] = species: Mus musculus; assay: Effect on whole mouse brain acetylcholine level after 1 day (control = 100+/-5)
[9] = species: Mus musculus; assay: Effect on whole mouse brain acetylcholine level after 1 week (control = 100+/-13)
[10] = species: Mus musculus; assay: Effect on whole mouse brain homovanillic acid level after 1 week (control = 100+/-5)
[11] = species: Mus musculus; assay: Effect on whole mouse brain dopamine level after 1 week (control = 100+/-10)
[12] = species: Mus musculus; assay: Effect on whole mouse brain homovanillic acid level after 1 day (control = 100+/-3)
[13] = species: Mus musculus; assay: Effect on whole mouse brain acetylcholine level after 3h (control = 100+/-5)
[14] = species: Mus musculus; assay: Effect on whole mouse brain 5-hydroxyindoleacetic acid level after 3h (control = 100+/-14)
[15] = species: Mus musculus; assay: Effect on whole mouse brain 5-HT acid level after 3h (control = 100+/-6)
[16] = species: Mus musculus; assay: Effect on whole mouse brain norepinephrine level after 3h (control = 100+/-8)
[17] = species: Mus musculus; assay: Effect on whole mouse brain DOPAC level after 1 week (control = 100+/-9)
[18] = species: Mus musculus; assay: Effect on whole mouse brain dopamine level after 3h (control = 100+/-3)
[19] = species: Mus musculus; assay: Effect on whole mouse brain norepinephrine level after 1 day (control = 100+/-3)
[20] = species: Mus musculus; assay: Effect on whole mouse brain choline level after 1 week (control = 100+/-9)
[21] = species: Mus musculus; assay: Effect on whole mouse brain 5-HT acid level after 1 day (control = 100+/-2)
[22] = species: Mus musculus; assay: Effect on whole mouse brain DOPAC level after 3h (control = 100+/-11)
[23] = species: Mus musculus; assay: Effect on whole mouse brain choline level after 3h (control = 100+/-5)
[24] = species: Mus musculus; assay: Effect on whole mouse brain acetylcholine level after 1 day (control = 100+/-8)
[25] = species: Mus musculus; assay: Effect on whole mouse brain norepinephrine level after 1 day (control = 100+/-5)
[26] = species: Mus musculus; assay: Effect on whole mouse brain dopamine level after 1 day (control = 100+/-3)
[27] = species: Mus musculus; assay: Effect on whole mouse brain choline level after 1 day (control = 100+/-1)
[28] = species: Mus musculus; assay: Effect on whole mouse brain 5-HT acid level after 1 day (control = 100+/-3)
[29] = species: Mus musculus; assay: Effect on whole mouse brain homovanillic acid level after 1 day (control = 100+/-4)
[30] = species: Mus musculus; assay: Effect on whole mouse brain DOPAC level after 1 day (control = 100+/-4)
[31] = species: Mus musculus; assay: Effect on whole mouse brain 5-hydroxyindoleacetic acid level after 1 day (control = 100+/-6)

With CC1NCCc2c1[nH]c1ccc(O)c(-c3c(O)ccc4[nH]c5c(c34)CCNC5C)c21 (centres undefined) the Control [1] was 93%, the Control [2] was 99% and the Control [3] was 111%. The Control [4] was 135%, the Control [5] was 97% and the Control [6] was 90%. It also gave a Control [7] of 103%, a Control [8] of 78% and a Control [9] of 94%. It also gave a Control [10] of 100%, a Control [11] of 98% and a Control [12] of 107%. The Control [13] was 98%, the Control [14] was 86% and the Control [15] was 107%. It also gave a Control [16] of 93%, a Control [17] of 96% and a Control [18] of 98%. It also gave a Control [19] of 105%, a Control [20] of 107% and a Control [21] of 111%. The Control [22] was 81% and the Control [23] was 83%.

CC1NCCc2c1[nH]c1ccc(O)c(-c3c(O)ccc4[nH]c5c(c34)CCNC5C)c21 (stereo in doubt; 6) gave a Control [24] of 73%, a Control [25] of 104% and a Control [26] of 96%. It also gave a Control [27] of 97%, a Control [28] of 107% and a Control [29] of 132%. It also gave a Control [30] of 101% and a Control [31] of 163%.

Work on CC1NCCc2c1[nH]c1ccc(O)c(-c3c(O)ccc4[nH]c5c(c34)CCNC5C)c21 (stereo in doubt; 5) yielded a Control [24] of 87%, a Control [25] of 102% and a Control [26] of 90%. For the same compound, the Control [27] was 77%, the Control [28] was 94% and the Control [29] was 115%. The Control [30] was 97% and the Control [31] was 146%.

Reference: ChEMBL document CHEMBL1126027, “Oxidation chemistry and biochemistry of the central mammalian alkaloid 1-methyl-6-hydroxy-1,2,3,4-tetrahydro-beta-carboline” (1992)
